From patent publication US6458776B1, “5-ASA derivatives having anti-inflammatory and antibiotic activity and methods of treating diseases therewith” (Nobex Corporation, priority 2000, dated 2002)

Columns and labels:
[1] = set-up: species or system rats; details: rat, 100 mg/kg
Description: 5-[4-(3-Carboxy-propionylsulfamoyl)-phenylazo]-2-hydroxy-benzoic acid (1), a compound of the present invention, and sulfasalazine (used as a control; not part of the present invention) were orally dosed to rats. The degradation and the generation of their metabolites after the oral dosing were measured to be able to confirm that (1) undergoes bacterial azo reduction and yields its metabolites, 5-aminosalicylic acid (5-ASA) and C4 sulfanomide.
This experiment was performed to confirm that (1) undergoes a bacterial reduction process and yields its metabolites in in-vivo metabolism. The quantification of its metabolites was also carried out. Sulfasalazine was used as a control since the same azo bond cleavage by bacteria occurs with it, which results in 5-aminosalicylic acid and sulfapyridine as its metabolites.
A total of 7 rats were used for the experiment and methylcellulose was used as a vehicle. The dosage amount was 100 mg/kg per rat. Three rats were dosed with (1) and the other three rats were dosed with sulfasalazine. One rat was used as a control and dosed with methylcellulose. Both urine and feces were collected over 2 days and analyzed by […].
Urine was collected each day and 300 μL of aliquot from each sample was centrifuged for 10 minutes at 5000 g. 80 μL of supernatant was injected for analysis. Feces was also collected, each day and homogenized with a 1:1 mixture of water and acetonitrile. This mixture was then centrifuged for 20 minutes at 5000 g. 80 μL of supernatant was injected for analysis.
A Waters 2690 HPLC was used for sample analysis as follows:
Mobile phase programming: Gradient
Mobile phase: A=Water+0.1% TFA B=Acetonitrile+0.1% TFA
Column: Phenomenex Max RP, 80 Å, 4.6 mm×250 mm
PDA settings: Collected spectrum: 210-400nm Extracted chromatogram: 280 and/or other
Run time/sample: Approximately 50 min.

SMILES | degradation after oral dosing ([1]; in vivo) | compounds detected, day 2 collection ([1]; in vivo, po) | metabolites detected in feces, day 1 collection ([1]; in vivo, po) | metabolites detected in urine ([1]; in vivo, po) | parent compound detected in feces ([1]; in vivo, po) | parent compound detected in urine ([1]; in vivo, po) | azo reduction in vivo ([1]; po) | melting point [°C] | generation of sulfapyridine ([1]; in vivo, po)
O=C(O)CCC(=O)NS(=O)(=O)c1ccc(N=Nc2ccc(O)c(C(=O)O)c2)cc1 [(1), 5-[4-(3-Carboxy-propionylsulfamoyl)-phenylazo]-2-hydroxy-benzoic acid] | degraded and its metabolites were produced as expected | No compounds were detected | acetylated 5-ASA and C4 sulfanomide were detected | none of its metabolites were detected | not detected | only a very small amount | undergo azo reduction | 192 | 
O=C(O)CC(=O)NS(=O)(=O)c1ccc(N=Nc2ccc(O)c(C(=O)O)c2)cc1 [Example 3, 5-[4-(2-Carboxy-Acetylsulfamoyl)-Phenylazo]-2-Hydroxy-Benzoic Acid] |  |  |  |  |  |  |  | 178 | 
O=C(O)c1cc(/N=N/c2ccc(S(=O)(=O)Nc3ccccn3)cc2)ccc1O [Sulfasalazine, sulfasalazine, reference compound] | also degraded | No compounds were detected | Most rats showed acetylated 5-ASA |  |  |  | undergo azo reduction |  | only one rat showed the generation of sulfapyridine
